pIC50: −log10 of the molar value. *1 amine or outer side, *2 acyl side, *3 side chain or, on linkers, in order; H or OH if unused. Where a SMILES comes first, the peptide text is derived from it. Bridges are numbered along the chain shown (N, C = ends). [ ]: non-standard residue; d: D form. Gla = N[C@@H](CC(C(=O)O)C(=O)O)C(=O)O; X1 = O=C([C@]1(N[*:1])CC2CCC1C2)[*:2]

One assay deals with T1, Growth factor receptor-bound protein 2 (Homo sapiens, UniProt P62993). As to the kind of experiment: Binding affinity against Growth factor receptor bound protein 2 using ELISA assay. (In an ELISA, binding on a coated surface is turned into a signal by an enzyme label.)
T1 sequence (P62993 whole entry): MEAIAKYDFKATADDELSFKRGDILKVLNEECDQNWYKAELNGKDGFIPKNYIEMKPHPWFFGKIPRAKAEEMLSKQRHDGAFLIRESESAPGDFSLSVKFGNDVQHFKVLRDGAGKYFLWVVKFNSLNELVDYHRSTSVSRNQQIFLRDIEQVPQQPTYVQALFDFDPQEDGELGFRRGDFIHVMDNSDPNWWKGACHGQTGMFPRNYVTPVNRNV
`CC(C)C[C@H]1NC(=O)[C@H](CC(C(=O)O)C(=O)O)NC(=O)CSC[C@@H](C(N)=O)NC(=O)[C@H](Cc2ccc(O)cc2)NC(=O)[C@@H](Cc2ccc3ccccc3c2)NC(=O)CNC(=O)[C@@H](C(C)C)NC(=O)[C@H](CC(N)=O)NC(=O)C2(CCCCC2)NC(=O)[C@H](Cc2ccc(O)cc2)NC1=O` had a pIC50 of 6.57.

As for `CSCC[C@H]1NC(=O)CNC(=O)[C@@H](C(C)C)NC(=O)[C@H](CC(N)=O)NC(=O)C2(CCCCC2)NC(=O)[C@H](Cc2ccc(O)cc2)NC(=O)[C@@H](CC(C)C)NC(=O)[C@H](CC(C(=O)O)C(=O)O)NC(=O)CSC[C@@H](C(N)=O)NC(=O)[C@H](Cc2ccc(O)cc2)NC1=O`, the pIC50 was 6.28. On the same count and under the same terms, next, `CC(C)C[C@H]1NC(=O)[C@H](CC(C(=O)O)C(=O)O)NC(=O)CSC[C@@H](C(N)=O)NC(=O)[C@H](Cc2ccc(O)cc2)NC(=O)[C@@H](Cc2c(F)c(F)c(F)c(F)c2F)NC(=O)CNC(=O)[C@@H](C(C)C)NC(=O)[C@H](CC(N)=O)NC(=O)C2(CCCCC2)NC(=O)[C@H](Cc2ccc(O)cc2)NC1=O`: 6.62; `CC(C)C[C@H]1NC(=O)[C@H](CC(C(=O)O)C(=O)O)NC(=O)CSC[C@@H](C(N)=O)NC(=O)[C@H](Cc2ccc(O)cc2)NC(=O)[C@@H](Cc2ccc(-c3ccccc3)cc2)NC(=O)CNC(=O)[C@@H](C(C)C)NC(=O)[C@H](CC(N)=O)NC(=O)C2(CCCCC2)NC(=O)[C@H](Cc2ccc(O)cc2)NC1=O`: 6.30. The same measure, in the same setting: in the case of `CC(C)C[C@H]1NC(=O)[C@H](CC(C(=O)O)C(=O)O)NC(=O)CSC[C@@H](C(N)=O)NC(=O)[C@H](Cc2ccc(O)cc2)NC(=O)[C@@H](CC(C)(C)C)NC(=O)CNC(=O)[C@@H](C(C)C)NC(=O)[C@H](CC(N)=O)NC(=O)C2(CCCCC2)NC(=O)[C@H](Cc2ccc(O)cc2)NC1=O` it was 6.61. On to `CC(C)C[C@H]1NC(=O)[C@H](CC(C(=O)O)C(=O)O)NC(=O)C[S+]([O-])C[C@@H](C(N)=O)NC(=O)[C@H](Cc2ccc(O)cc2)NC(=O)[C@@H](CC(C)(C)C)NC(=O)CNC(=O)[C@@H](C(C)C)NC(=O)[C@H](CC(N)=O)NC(=O)C2(CCCCC2)NC(=O)[C@H](Cc2ccc(O)cc2)NC1=O` (stereo in doubt; 12), for which the pIC50 is 7.13. Same read-out and setting: next, `CC(C)C[C@H]1NC(=O)[C@H](CC(C(=O)O)C(=O)O)NC(=O)C[S+]([O-])C[C@@H](C(N)=O)NC(=O)[C@H](Cc2ccc(O)cc2)NC(=O)[C@@H](Cc2ccc3ccccc3c2)NC(=O)CNC(=O)[C@@H](C(C)C)NC(=O)[C@H](CC(N)=O)NC(=O)C2(CCCCC2)NC(=O)[C@H](Cc2ccc(O)cc2)NC1=O` (stereo in doubt; 15): 5.31; `CSCC[C@H]1NC(=O)CNC(=O)[C@@H](C(C)C)NC(=O)[C@H](CC(N)=O)NC(=O)[C@@H](CCCC(=O)O)NC(=O)[C@H](Cc2ccc(O)cc2)NC(=O)[C@@H](CC(C)C)NC(=O)[C@H](CC(C(=O)O)C(=O)O)NC(=O)CSC[C@@H](C(N)=O)NC(=O)[C@H](Cc2ccc(O)cc2)NC1=O`: 5.82. Same read-out and setting: next, `CSCC[C@@H]1NC(=O)CNC(=O)[C@H](C(C)C)NC(=O)[C@H](CC(N)=O)NC(=O)[C@@]2(CC3CCC2C3)NC(=O)[C@H](Cc2ccc(O)cc2)NC(=O)[C@H](CC(C)C)NC(=O)[C@H](CC(C(=O)O)C(=O)O)NC(=O)CSC[C@@H](C(N)=O)NC(=O)[C@H](Cc2ccc(O)cc2)NC1=O` (some centres not stated) ({CH2CO}-[Gla]LY[X1]NVGMYC-NH2; thioether N-10): 6.14; `CC(C)C[C@H]1NC(=O)[C@H](CC(C(=O)O)C(=O)O)NC(=O)C[S+]([O-])C[C@@H](C(N)=O)NC(=O)[C@H](Cc2ccc(O)cc2)NC(=O)[C@@H](C2CCCCC2)NC(=O)CNC(=O)[C@@H](C(C)C)NC(=O)[C@H](CC(N)=O)NC(=O)C2(CCCCC2)NC(=O)[C@H](Cc2ccc(O)cc2)NC1=O` (stereo in doubt; 16): 6.83.

`CC(C)C[C@H]1NC(=O)[C@H](CC(C(=O)O)C(=O)O)NC(=O)C[S+]([O-])C[C@@H](C(N)=O)NC(=O)[C@H](Cc2ccc(O)cc2)NC(=O)[C@@H](C2CCCCC2)NC(=O)CNC(=O)[C@@H](C(C)C)NC(=O)[C@H](CC(N)=O)NC(=O)C2(CCCCC2)NC(=O)[C@H](Cc2ccc(O)cc2)NC1=O` (stereo in doubt; 17) had a negative logarithm of the IC50 (pIC50) of 5.85. The compound `CC(C)C[C@H]1NC(=O)[C@H](CC(C(=O)O)C(=O)O)NC(=O)C[S+]([O-])C[C@@H](C(N)=O)NC(=O)[C@H](Cc2ccc(O)cc2)NC(=O)[C@@H](CC(C)(C)C)NC(=O)CNC(=O)[C@@H](C(C)C)NC(=O)[C@H](CC(N)=O)NC(=O)C2(CCCCC2)NC(=O)[C@H](Cc2ccc(O)cc2)NC1=O` (stereo in doubt; 13) showed a pIC50 of 6.13.

As to `CC(C)C[C@H]1NC(=O)[C@H](CC(C(=O)O)C(=O)O)NC(=O)C[S+]([O-])C[C@@H](C(N)=O)NC(=O)[C@H](Cc2ccc(O)cc2)NC(=O)[C@@H](Cc2ccc3ccccc3c2)NC(=O)CNC(=O)[C@@H](C(C)C)NC(=O)[C@H](CC(N)=O)NC(=O)C2(CCCCC2)NC(=O)[C@H](Cc2ccc(O)cc2)NC1=O` (stereo in doubt; 14), the pIC50 was 6.50.

Compound `CSCC[C@@H]1NC(=O)CNC(=O)[C@H](C(C)C)NC(=O)[C@H](CC(N)=O)NC(=O)[C@H](CCC(=O)O)NC(=O)[C@H](Cc2ccc(O)cc2)NC(=O)[C@H](CC(C)C)NC(=O)[C@H](CCC(=O)O)NC(=O)CSC[C@@H](C(N)=O)NC(=O)[C@H](Cc2ccc(O)cc2)NC1=O` (HELM PEPTIDE1{[O=C(C[*:3])[*:2]].E.L.Y.E.N.V.G.M.Y.C.[am]}$PEPTIDE1,PEPTIDE1,1:R3-11:R3$$$V2.0) gave a negative-log IC50 (pIC50) of less than 4.00. Consider `CSCC[C@H]1NC(=O)CNC(=O)[C@@H](C(C)C)NC(=O)[C@H](CC(N)=O)NC(=O)[C@@H](CCC(=O)O)NC(=O)[C@H](Cc2ccc(O)cc2)NC(=O)[C@@H](CC(C)C)NC(=O)[C@H](CC(C(=O)O)C(=O)O)NC(=O)CSC[C@@H](C(N)=O)NC(=O)[C@H](Cc2ccc(O)cc2)NC1=O`, for which the negative logarithm of the IC50 (pIC50) is 6.00. On the same count and under the same terms, in the case of `CSCC[C@@H]1NC(=O)CNC(=O)[C@H](C(C)C)NC(=O)[C@H](CC(N)=O)NC(=O)[C@@H]2CCCN2C(=O)[C@H](Cc2ccc(O)cc2)NC(=O)[C@H](CC(C)C)NC(=O)[C@H](CCC(=O)O)NC(=O)CSC[C@@H](C(N)=O)NC(=O)[C@H](Cc2ccc(O)cc2)NC1=O` (HELM PEPTIDE1{[O=C(C[*:3])[*:2]].E.L.Y.P.N.V.G.M.Y.C.[am]}$PEPTIDE1,PEPTIDE1,1:R3-11:R3$$$V2.0) it was 5.11.

The next assay addresses T1, Growth factor receptor-bound protein 2. As to the kind of experiment: Inhibitory activity against Growth factor receptor bound protein 2 using ELISA assay.
With `CSCC[C@@H]1NC(=O)CNC(=O)[C@H](C(C)C)NC(=O)[C@H](CC(N)=O)NC(=O)[C@H](CCC(=O)O)NC(=O)[C@H](Cc2ccc(O)cc2)NC(=O)[C@H](CC(C)C)NC(=O)[C@H](CCC(=O)O)NC(=O)CSC[C@@H](C(N)=O)NC(=O)[C@H](Cc2ccc(O)cc2)NC1=O` (HELM PEPTIDE1{[O=C(C[*:3])[*:2]].E.L.Y.E.N.V.G.M.Y.C.[am]}$PEPTIDE1,PEPTIDE1,1:R3-11:R3$$$V2.0), the pIC50 is 4.70.

By pIC50 is commonly meant the IC50 on a negative log10 scale, so that one unit is a factor of ten. A higher pIC50 goes with a low IC50.

(Values after ChEMBL document CHEMBL1136083, “Potent Grb2-SH2 domain antagonists not relying on phosphotyrosine mimics” (Bioorg Med Chem Lett, 2003).)
